Measured values reported in ChEMBL document CHEMBL1156472, “Structural variation governs substrate specificity for organic anion transporter (OAT) homologs. Potential remote sensing by OAT family members” (J Biol Chem, 2007).

The molecules below were run against T1, Solute carrier family 22 member 20 (Mus musculus, UniProt Q80UJ1) (assay: Inhibition of mouse Oat6-mediated [3H]ES uptake in Xenopus oocytes after 1 hr). Conditions: read-out: Ki.
T1 sequence (Q80UJ1 whole entry): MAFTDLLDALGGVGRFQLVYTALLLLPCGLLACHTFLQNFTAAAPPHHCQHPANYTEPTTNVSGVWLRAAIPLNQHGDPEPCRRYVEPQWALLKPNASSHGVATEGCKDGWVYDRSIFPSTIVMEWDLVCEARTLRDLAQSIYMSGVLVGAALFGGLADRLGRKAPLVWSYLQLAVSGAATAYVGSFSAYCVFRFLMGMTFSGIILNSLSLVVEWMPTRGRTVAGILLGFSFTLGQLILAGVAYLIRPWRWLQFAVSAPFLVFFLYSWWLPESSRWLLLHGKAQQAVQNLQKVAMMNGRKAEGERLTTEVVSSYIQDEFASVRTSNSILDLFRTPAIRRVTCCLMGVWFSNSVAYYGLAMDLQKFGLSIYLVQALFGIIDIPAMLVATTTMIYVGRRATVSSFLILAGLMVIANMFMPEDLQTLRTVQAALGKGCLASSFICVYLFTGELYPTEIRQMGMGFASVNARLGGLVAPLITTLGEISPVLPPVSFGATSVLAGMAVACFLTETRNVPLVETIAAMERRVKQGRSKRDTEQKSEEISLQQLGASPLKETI
Format: cell-based, Oocyte

Ki | SMILES
8.4 µM | CCCN(CCC)S(=O)(=O)c1ccc(C(=O)O)cc1 [PROBENECID]
452 µM | CC1(C)S[C@@H]2[C@H](NC(=O)Cc3ccccc3)C(=O)N2[C@H]1C(=O)O (single isomer, unassigned) [PENICILLIN G SODIUM]
446 µM | Nc1ccc(C(=O)NCC(=O)O)cc1 [AMINOHIPPURIC ACID]
66 µM | O=C(O)C(=O)Cc1ccc(O)cc1 [4-HYDROXYPHENYLPYRUVIC ACID]
58 µM | C[C@]12CC[C@@H]3c4ccc(OS(=O)(=O)O)cc4CC[C@H]3[C@@H]1CCC2=O [ESTRONE SULFURIC ACID]
1580 µM | O=C(O)CCCCC(=O)O [ADIPIC ACID]
191 µM | CC(O)CC(=O)O (stereo not drawn) [3-HYDROXYBUTYRIC ACID, (+/-)-]
1130 µM | O=C(O)CCCCCCC(=O)O [OCTANEDIOATE]
597 µM | CN(Cc1cnc2nc(N)nc(N)c2n1)c1ccc(C(=O)NC(CCC(=O)O)C(=O)O)cc1 (single isomer, unassigned) [METHOTREXATE]
312 µM | O=C(O)CNC(=O)c1ccccc1 [HIPPURIC ACID]
5410 µM | O=C(O)CCCC(=O)O [GLUTARATE]
1.1 µM | CC(C)Cc1ccc(C(C)C(=O)O)cc1 (stereo not drawn) [IBUPROFEN]
1330 µM | CC1(C)S[C@@H]2[C@H](NC(=O)C(C(=O)O)c3ccccc3)C(=O)N2[C@H]1C(=O)O (stereo partly drawn) [CARBENICILLIN DISODIUM]
27800 µM | CC(=O)NC(CC(=O)O)C(=O)O (stereo not drawn)
271 µM | CC(=O)C(=O)O [PYRUVATE]
182 µM | O=C(O)C(O)Cc1ccc(O)cc1 (stereo not drawn)
29 µM | O=C(O)C(=O)Cc1ccccc1 [PHENYLPYRUVATE]
533 µM | CC1(C)S[C@@H]2[C@H](NC(=O)[C@H](C(=O)O)c3ccsc3)C(=O)N2[C@H]1C(=O)O [TICARCILLIN]
18 µM | CCCCC[C@H](O)/C=C/[C@H]1[C@H](O)CC(=O)[C@@H]1C/C=C\CCCC(=O)O [DINOPROSTONE]
279 µM | CCC(=O)O [PROPIONIC ACID]
9 µM | CCCCCC(=O)O [HEXANOATE]
99 µM | O=C1OC2(c3ccc(O)cc3Oc3cc(O)ccc32)c2ccccc21 [FLUORESCEIN]
6.6 µM | CCCCC(CC)C(=O)O (stereo not drawn) [2-ETHYLHEXANOIC ACID]
315 µM | CC(C)C(O)C(=O)O (stereo not drawn)
8.2 µM | CCCCCCC(=O)O [HEPTANOATE]
> 30000 µM | O=C(O)/C=C/C(=O)O [FUMARIC ACID]
101 µM | CC(=O)Oc1ccccc1C(=O)O [ASPIRIN]

SMILES | Ki
O=C(O)c1ccccc1-c1c2cc(Br)c(=O)c(Br)c-2oc2c(Br)c(O)c(Br)cc12 | 4.4 µM
CC(C)CC(=O)O [3-METHYLBUTANOIC ACID] | 32.3 µM
C[C@]12CC[C@@H]3c4ccc(OS(=O)(=O)O)cc4CC[C@H]3[C@@H]1CC[C@@H]2OS(=O)(=O)O [ESTRADIOL DISULFATE] | 7210 µM
C[C@@H]1Cc2c(Cl)cc(C(=O)N[C@@H](Cc3ccccc3)C(=O)O)c(O)c2C(=O)O1 [3R14S-OCHRATOXIN A] | 49 µM
CCCC(=O)O [BUTYRIC ACID] | 82 µM
O=C(O)c1ccccc1 [BENZOIC ACID] | 13.8 µM
O=C(O)c1ccccc1O [SALICYLIC ACID] | 44 µM

Same assay, conditions: read-out: pKi (converted)

Ki | SMILES
182 µM | O=C(O)[C@@H](O)Cc1ccc(O)cc1
316 µM | CC(C)[C@H](O)C(=O)O
6.61 µM | CCCC[C@H](CC)C(=O)O
191 µM | C[C@H](O)CC(=O)O
191 µM | C[C@@H](O)CC(=O)O [(R)-3-HYDROXYBUTANOATE]
27500 µM | CC(=O)N[C@@H](CC(=O)O)C(=O)O
6.61 µM | CCCC[C@@H](CC)C(=O)O
> 31600 µM | O=C(O)/C=C/C(=O)O [FUMARIC ACID]
316 µM | CC(C)[C@@H](O)C(=O)O [DEAMINOHYDROXYVALINE]

The molecules below were run against T1, Solute carrier family 22 member 20 (assay: Activity of mouse Oat6 expressed in Xenopus oocytes assessed as drug uptake). Conditions: oocyte.
Format: cell-based

Vmax | SMILES
4.6 pmol/h | Nc1ccc(C(=O)NCC(=O)O)cc1 [AMINOHIPPURIC ACID]
40 pmol/h | C[C@]12CC[C@@H]3c4ccc(OS(=O)(=O)O)cc4CC[C@H]3[C@@H]1CCC2=O [ESTRONE SULFURIC ACID]
0.28 pmol/h | CC(C)Cc1ccc(C(C)C(=O)O)cc1 (stereo not drawn) [IBUPROFEN]
0.9 pmol/h | CCCCC[C@H](O)/C=C/[C@H]1[C@H](O)CC(=O)[C@@H]1C/C=C\CCCC(=O)O [DINOPROSTONE]

SMILES | Vmax
C[C@@H]1Cc2c(Cl)cc(C(=O)N[C@@H](Cc3ccccc3)C(=O)O)c(O)c2C(=O)O1 [3R14S-OCHRATOXIN A] | 4.8 pmol/h
